Assay results reported in patent publication US11572398B2, “GLP-1 derivatives and uses thereof” (Novo Nordisk A/S, priority 2014, dated 2023).
Where two headings read alike, the source gives them in different places.

Tests used:
[1] = target: T1, human GLP-1 receptor (Homo sapiens, UniProt P43220); test: In vitro potency: CRE luciferase reporter gene assay in BHK cells expressing the human GLP-1 receptor; assay type: cell-based
T1 construct: expressed in transfected cells; host or cells: BHK cells (parent line BHKTS13), clone FCW467-12A; membrane preparation
T1 sequence (P43220 24-463): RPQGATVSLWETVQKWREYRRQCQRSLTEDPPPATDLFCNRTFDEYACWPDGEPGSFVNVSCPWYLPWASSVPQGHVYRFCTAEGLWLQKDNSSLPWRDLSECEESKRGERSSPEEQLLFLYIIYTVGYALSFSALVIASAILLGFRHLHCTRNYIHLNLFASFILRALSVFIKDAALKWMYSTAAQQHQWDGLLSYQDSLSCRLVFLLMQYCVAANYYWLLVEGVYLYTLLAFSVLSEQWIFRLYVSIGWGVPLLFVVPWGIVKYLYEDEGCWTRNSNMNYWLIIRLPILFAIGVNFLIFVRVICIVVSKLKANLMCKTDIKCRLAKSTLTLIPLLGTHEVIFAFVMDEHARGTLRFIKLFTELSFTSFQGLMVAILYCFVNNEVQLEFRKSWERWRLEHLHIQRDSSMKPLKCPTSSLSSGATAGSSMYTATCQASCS
Summary of the method: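 Whole-cell assay in stably transfected BHK cells carrying CRE-driven firefly luciferase, 5×10^3 cells/well, in assay buffer with 2% ovalbumin and 0.2% Pluronic F-68. Compound working solutions were 0.2 μM.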

[2] = target: T1, human GLP-1 receptor; test: GLP-1 receptor binding: competitive binding assay (125I-GLP-1, SPA) on isolated membranes at low and high HSA
[3] = Low HSA IC50, low HSA (max. 0.001% final assay concentration)
[4] = whole cell reporter gene assay, BHK cells, human GLP-1 receptor, average of at least two replicates, read-out: EC50
[5] = high HSA (2.0% final assay concentration), read-out: High HSA IC50

SMILES | EC50 [1] [nM] | IC50 ([2]; High HSA IC50, high HSA (2.0% final assay concentration)) [nM] | IC50 [2, 3] [nM] | EC50 [1, 4] [nM] | IC50 [2, 5] [nM]
CC[C@H](C)[C@H](NC(=O)[C@H](Cc1ccccc1)NC(=O)[C@H](CCC(=O)O)NC(=O)[C@H](CCCNC(=N)N)NC(=O)[C@H](C)NC(=O)[C@H](C)NC(=O)[C@H](CCC(N)=O)NC(=O)[C@H](CCC(=O)O)NC(=O)[C@H](CCC(=O)O)NC(=O)[C@H](CC(C)C)NC(=O)[C@H](Cc1ccc(O)cc1)NC(=O)[C@H](CO)NC(=O)[C@H](CO)NC(=O)[C@@H](NC(=O)[C@H](CC(=O)O)NC(=O)[C@H](CO)NC(=O)[C@@H](NC(=O)[C@H](Cc1ccccc1)NC(=O)[C@@H](NC(=O)CNC(=O)[C@H](CCC(=O)O)NC(=O)C(C)(C)NC(=O)[C@@H](N)Cc1c[nH]cn1)[C@@H](C)O)[C@@H](C)O)C(C)C)C(=O)N[C@@H](C)C(=O)N[C@@H](Cc1c[nH]c2ccccc12)C(=O)N[C@@H](CC(C)C)C(=O)N[C@H](C(=O)N[C@@H](CCCNC(=N)N)C(=O)NCC(=O)N[C@@H](CCCNC(=N)N)C(=O)N[C@@H](CCCCNC(=O)CN(CCCNC(=O)COCCOCCNC(=O)COCCOCCNC(=O)COCCOCCNC(=O)COCCOCCNC(=O)COCCOCCNC(=O)COCCOCCNC(=O)CC[C@H](NC(=O)[C@H]1CC[C@H](CNC(=O)CCCNC(=O)CCCCCCCCCCCCCCCS(=O)(=O)O)CC1)C(=O)O)CCCNC(=O)COCCOCCNC(=O)COCCOCCNC(=O)COCCOCCNC(=O)COCCOCCNC(=O)COCCOCCNC(=O)COCCOCCNC(=O)CC[C@H](NC(=O)[C@H]1CC[C@H](CNC(=O)CCCNC(=O)CCCCCCCCCCCCCCCS(=O)(=O)O)CC1)C(=O)O)C(=O)O)C(C)C [Example 21] | 0.0015 | 16 | 0.13 | – | –
CC[C@H](C)[C@H](NC(=O)[C@H](Cc1ccccc1)NC(=O)[C@H](CCC(=O)O)NC(=O)[C@H](CCCNC(=N)N)NC(=O)[C@H](C)NC(=O)[C@H](C)NC(=O)[C@H](CCC(N)=O)NC(=O)[C@H](CCC(=O)O)NC(=O)[C@H](CCC(=O)O)NC(=O)[C@H](CC(C)C)NC(=O)[C@H](Cc1ccc(O)cc1)NC(=O)[C@H](CO)NC(=O)[C@H](CO)NC(=O)[C@@H](NC(=O)[C@H](CC(=O)O)NC(=O)[C@H](CO)NC(=O)[C@@H](NC(=O)[C@H](Cc1ccccc1)NC(=O)[C@@H](NC(=O)CNC(=O)[C@H](CCC(=O)O)NC(=O)C(C)(C)NC(=O)[C@@H](N)Cc1c[nH]cn1)[C@@H](C)O)[C@@H](C)O)C(C)C)C(=O)N[C@@H](C)C(=O)N[C@@H](Cc1c[nH]c2ccccc12)C(=O)N[C@@H](CC(C)C)C(=O)N[C@H](C(=O)N[C@@H](CCCNC(=N)N)C(=O)NCC(=O)N[C@@H](CCCNC(=N)N)C(=O)N[C@@H](CCCCNC(=O)CN(CCCNC(=O)COCCOCCNC(=O)COCCOCCNC(=O)COCCOCCNC(=O)COCCOCCNC(=O)CC[C@H](NC(=O)[C@H]1CC[C@H](CNC(=O)CCCCCCCCCCCCCCCS(=O)(=O)O)CC1)C(=O)O)CCCNC(=O)COCCOCCNC(=O)COCCOCCNC(=O)COCCOCCNC(=O)COCCOCCNC(=O)CC[C@H](NC(=O)[C@H]1CC[C@H](CNC(=O)CCCCCCCCCCCCCCCS(=O)(=O)O)CC1)C(=O)O)C(=O)O)C(C)C [Example 22, N{Epsilon-37}-[2-[bis[3-[[2-[2-[2-[[2-[2-[2-[[2-[2-[2-[[2-[2-[2-[[(4S)-4-carboxy-4-[[4-[(16-sulfohexadecanoylamino)methyl]cyclohexanecarbonyl]amino]butanoyl]amino]ethoxy]ethoxy]acetyl]amino]ethoxy]ethoxy]acetyl]amino]ethoxy]ethoxy]acetyl]amino]ethoxy]ethoxy]acetyl]amino]propyl]amino]acetyl]-[Aib8,Glu22,Arg26,Arg34,Lys37]-GLP-1-(7-37)-peptide] | – | – | 0.12 | 0.0016 | 47
CC[C@H](C)[C@H](NC(=O)[C@H](Cc1ccccc1)NC(=O)[C@H](CCC(=O)O)NC(=O)[C@H](CCCNC(=N)N)NC(=O)[C@H](C)NC(=O)[C@H](C)NC(=O)[C@H](CCC(N)=O)NC(=O)[C@H](CCC(=O)O)NC(=O)[C@H](CCC(=O)O)NC(=O)[C@H](CC(C)C)NC(=O)[C@H](Cc1ccc(O)cc1)NC(=O)[C@H](CO)NC(=O)[C@H](CO)NC(=O)[C@@H](NC(=O)[C@H](CC(=O)O)NC(=O)[C@H](CO)NC(=O)[C@@H](NC(=O)[C@H](Cc1ccccc1)NC(=O)[C@@H](NC(=O)CNC(=O)[C@H](CCC(=O)O)NC(=O)C(C)(C)NC(=O)[C@@H](N)Cc1c[nH]cn1)[C@@H](C)O)[C@@H](C)O)C(C)C)C(=O)N[C@@H](C)C(=O)N[C@@H](Cc1c[nH]c2ccccc12)C(=O)N[C@@H](CC(C)C)C(=O)N[C@H](C(=O)N[C@@H](CCCNC(=N)N)C(=O)NCC(=O)N[C@@H](CCCNC(=N)N)C(=O)N[C@@H](CCCCNC(=O)CN(CCCNC(=O)COCCOCCNC(=O)COCCOCCNC(=O)COCCOCCNC(=O)COCCOCCNC(=O)COCCOCCNC(=O)CC[C@H](NC(=O)[C@H]1CC[C@H](CNC(=O)CCCCCCCCCCCCCCCS(=O)(=O)O)CC1)C(=O)O)CCCNC(=O)COCCOCCNC(=O)COCCOCCNC(=O)COCCOCCNC(=O)COCCOCCNC(=O)COCCOCCNC(=O)CC[C@H](NC(=O)[C@H]1CC[C@H](CNC(=O)CCCCCCCCCCCCCCCS(=O)(=O)O)CC1)C(=O)O)C(=O)O)C(C)C [Example 23, N{Epsilon-37}-[2-[bis[3-[[2-[2-[2-[[2-[2-[2-[[2-[2-[2-[[2-[2-[2-[[2-[2-[2-[[(4S)-4-carboxy-4-[[4-[(16-sulfohexadecanoylamino)methyl]cyclohexanecarbonyl]amino]butanoyl]amino]ethoxy]ethoxy]acetyl]amino]ethoxy]ethoxy]acetyl]amino]ethoxy]ethoxy]acetyl]amino]ethoxy]ethoxy]acetyl]amino]ethoxy]ethoxy]acetyl]amino]propyl]amino]acetyl]-[Aib8,Glu22,Arg26,Arg34,Lys37]-GLP-1-(7-37)-peptide] | – | – | 0.14 | 0.0014 | 16
CC[C@H](C)[C@H](NC(=O)[C@H](Cc1ccccc1)NC(=O)[C@H](CCC(=O)O)NC(=O)[C@H](CCCNC(=N)N)NC(=O)[C@H](C)NC(=O)[C@H](C)NC(=O)[C@H](CCC(N)=O)NC(=O)[C@H](CCC(=O)O)NC(=O)[C@H](CCC(=O)O)NC(=O)[C@H](CC(C)C)NC(=O)[C@H](Cc1ccc(O)cc1)NC(=O)[C@H](CO)NC(=O)[C@H](CO)NC(=O)[C@@H](NC(=O)[C@H](CC(=O)O)NC(=O)[C@H](CO)NC(=O)[C@@H](NC(=O)[C@H](Cc1ccccc1)NC(=O)[C@@H](NC(=O)CNC(=O)[C@H](CCC(=O)O)NC(=O)C(C)(C)NC(=O)[C@@H](N)Cc1c[nH]cn1)[C@@H](C)O)[C@@H](C)O)C(C)C)C(=O)N[C@@H](C)C(=O)N[C@@H](Cc1c[nH]c2ccccc12)C(=O)N[C@@H](CC(C)C)C(=O)N[C@H](C(=O)N[C@@H](CCCNC(=N)N)C(=O)NCC(=O)N[C@@H](CCCNC(=N)N)C(=O)N[C@@H](CCCCNC(=O)CN(CCCNC(=O)COCCOCCNC(=O)COCCOCCNC(=O)COCCOCCNC(=O)COCCOCCNC(=O)COCCOCCNC(=O)COCCOCCNC(=O)CC[C@H](NC(=O)[C@H]1CC[C@H](CNC(=O)CCCCCCCCCCCCCCCS(=O)(=O)O)CC1)C(=O)O)CCCNC(=O)COCCOCCNC(=O)COCCOCCNC(=O)COCCOCCNC(=O)COCCOCCNC(=O)COCCOCCNC(=O)COCCOCCNC(=O)CC[C@H](NC(=O)[C@H]1CC[C@H](CNC(=O)CCCCCCCCCCCCCCCS(=O)(=O)O)CC1)C(=O)O)C(=O)O)C(C)C [Example 24] | – | – | 0.16 | 0.0018 | 32
